According to a melting point compilation (Tetko et al.; mined from patent text by program, amines drawn as free bases though some values may be those of a salt):

Compound | melting point
CS(=O)(=O)c1ccc(C(=O)c2cnoc2C2CC2)c(Cl)c1-c1nccs1 | 153 to 155 °C
CC(C)(C)c1cc(-c2cncn2CCCO)cc(C(C)(C)C)c1O | 166 to 167 °C
COc1ccc(NCC(C)C#N)c([N+](=O)[O-])c1 (stereo not given) | 114 to 115 °C
Cc1cc(Cn2c(O)nc3c(N)nc(C)c(C)c32)on1 | > 300 °C
CC1(C)C(=O)C(c2ccccc2)=C1c1ccc(S(C)(=O)=O)cc1 | 145 to 146 °C
CCOC(=O)CN(Cc1ccccc1)C(=S)CCc1nc2c(F)c(F)cc(F)c2s1 | 86 to 88 °C
Cc1c(Cc2ccccc2)c(=O)oc2cc(OC(C)c3nnn[nH]3)cc(OC(C)c3nnn[nH]3)c12 (stereo not given) | 91 to 104 °C
COC(=O)NN=Cc1ccccc1N | 149 to 150 °C
CC(c1ccc(Cl)cc1)N1CCNC1=NC#N (stereo not given) | 133 °C
O=C(C=Cc1ccccc1[N+](=O)[O-])CC(=O)NC1CC1 | 133 to 134 °C
O=[N+]([O-])c1ccc2c(c1)OC(c1ccccc1)O2 (stereo not given) | 84 to 85 °C
CCCCN(CC)c1nc(C)nc2c1NC(=S)CN2c1ccc(C(C)C)cc1Br | 148 to 149 °C
C[C@H]1C=CC2=C[C@@H](O)C[C@H](OC(=O)CC(C)(C)C)[C@@H]2[C@H]1CC[C@@H]1C[C@@H](O)CC(=O)O1 | 155 °C
N#Cc1ccc(Cn2cc(C=C3C(=O)NC(=O)NC3=O)c3ccccc32)cc1 | > 300 °C
Cc1ccc(C(=O)NC(NC(=NC#N)Nc2cncnc2)C(Cl)(Cl)Cl)cc1 (stereo not given) | 186 to 188 °C
CCCn1c(COCC)nc2c(N)nc3ccc(OCCCCCCNC(=O)NC(C)C)cc3c21 | 167 to 169 °C
C=C1SC(=O)N(c2ccc3cc(-c4cc5c(c(-c6cccnc6)c4)OCO5)ccc3c2)C1=O | 298 to 300 °C
Cc1cc2c(cc1Br)C(C)(C)C=CC2(C)C | 103 to 105 °C
O=C1N(N(c2ccccc2)c2ccccc2)c2ccccc2C1(Cc1ccncc1)Cc1ccncc1 | 184 to 186 °C
CCNC(=O)CCc1cnoc1-c1ccccc1 | 75 to 76 °C
COc1cc(OC)n2nc(N)nc2n1 | 215 to 220 °C
OC(Cn1cncn1)(c1ccccc1)C1OC1c1ccccc1Cl (stereo not given) | 180 to 182 °C
Cn1c(C(F)(F)F)cc(C#N)c1-c1ccc(Cl)c(Cl)c1 | 130 °C
O=S1(=O)c2cc(C=C(c3ccccc3)c3ccccc3)ccc2N(c2ccccc2)c2ccc(C=C(c3ccccc3)c3ccccc3)cc21 | 269 to 274 °C
Fc1ccc(-c2cnc3nc(C(F)(F)F)cnn23)cc1-c1ccccn1 | 128 to 131 °C
Cc1cnc(-c2ncn3c2[C@@H]2CCCN2C(=O)c2c(Cl)cccc2-3)o1 | 228 to 230 °C
O=C1c2cc(N(CCO)CCO)ccc2OC12CC2 | 96 to 97 °C
O=C1CCc2ccc(O)c(c2)Oc2ccc(cc2)C2OC2CO1 (stereo not given) | 180 to 181 °C

Compound | melting point
O=[N+]([O-])c1ccc(C#CBr)cc1 | 170 °C
C1=C(c2c[nH]c3ccccc23)CCN(CCCOc2cccc3[nH]ccc23)C1 | 192 to 194 °C
CCSC1=N[C@@H](c2ccccc2)[C@H](c2ccccc2)N1 (relative stereo) | 130 to 132 °C
COCCOC(=O)NNC(=O)OCCOC | 71.3 to 76.5 °C
CC1(C)C(=O)C(C)(C)c2cc3[nH]c(S(=O)Cc4ccccn4)nc3cc21 (stereo not given) | 201 to 203 °C
Cc1cn(C2CC(O)C(C(O)I)O2)c(=O)[nH]c1=O (stereo not given) | 172 to 175 °C
O=S(=O)(NCc1ccnc2ccccc12)c1ccc(Cc2ccccc2)cc1 | 106 to 107 °C
CCCCCCCSc1nn2c(=O)c(C)c(F)nc2s1 | 78 to 91 °C
CC(C)Sc1ccc(O)cc1O | 67 °C
Nc1ccc2oc3c(c2c1)CCCCCC3 | 97 to 98 °C
CC(C)(CCCCCCCCCCCC(C)(C)C(=O)O)C(=O)O | 95 to 96 °C
ClCc1ccc(-c2nsc3ccccc23)cc1 | 86 to 89 °C
NC(=O)CN1CC[C@@H](O)C1=O | 195 to 196 °C
C[C@@H](Nc1c(NCc2ccc(Cl)cc2Cl)c(=O)c1=O)C(C)(C)C | 235 to 239 °C
CN(C)N=C(c1ccccc1)c1cc(C(C)(C)C)c(O)c(C(C)(C)C)c1 | 111 to 124 °C
CC=C1CCC(C(=O)OC)C(C(=O)OC)C1 (stereo not given) | 162 to 163 °C
c1ccc(Nc2nc[nH]c3ncc(-c4ccccc4)c2-3)cc1 | 208 to 209 °C
CCCCCCCCCCCCCCCCCNC(=O)Oc1cccc(N)c1 | 69 to 75 °C
CCOC(=O)c1c(C(F)(F)F)nc2cc(C(F)(F)F)ccc2c1O | 156 °C
O=[N+]([O-])c1ccc(O)c(Cl)c1Cl | 148 to 150 °C
O=C(c1ccc(Cl)c([N+](=O)[O-])c1)c1cc2ccccc2o1 | 132 °C
Nc1cc(=O)n(Cc2ccc(Cl)cc2Cl)[nH]1 | 189 °C
O=[N+]([O-])c1ccc2[nH]c(-c3ccccc3)cc2c1 | 199 to 200 °C
O=[N+]([O-])c1ccc(Sc2cc(Br)nc(Br)c2)cc1 | 166 to 168 °C
CC1(C)CNc2cc(Br)ccc21 | 100 to 102 °C
Cc1ccc2c(c1)C(NC(=O)CCl)CC(C)(C)O2 (stereo not given) | 147 to 148 °C
BrCCCCOc1ccc2c(ccn2-c2ccc(Br)cc2)c1 | 80 to 81 °C

The remaining lines, values ahead:

melting point | Compound
99 to 101 °C | CC(C)c1cccc(C(C)C)c1NC(=O)CNC(C)c1ccccn1 (stereo not given)
185 to 188 °C | O=C(CCN1CCN(c2cccc(C(F)(F)F)c2)CC1)Nc1ccccc1[N+](=O)[O-]
198 °C | COc1cc(N2CCCC2)ccc1CN1C(=O)C(C)(c2ccccc2Cl)c2cc(Cl)ccc21 (stereo not given)
146 to 152 °C | CCN(CCCc1c[nH]c2c(Cl)cccc12)C1COc2c(F)ccc(C(N)=O)c2C1 (stereo not given)
120 to 123 °C | CCSc1ncccc1C(=O)N1CCC(=O)c2ccc(Cl)cc21
279 °C | COc1ccc(C2C(C(=O)c3ccc(OC(F)(F)F)cc3)=C(O)C(=O)N2c2ccc(C)nn2)cc1 (stereo not given)
184 to 186 °C | COc1ccc(-c2cc(C(N)=O)c(=O)n(CC=Cc3ccccc3)n2)cc1
210 to 212 °C | Cc1cc(C)c(-c2cn(C)c3nc(N4CCCCC4)n(C)c(=O)c23)c(C)c1
160 to 162 °C | O=C(NC1CCN(CCc2cccc3ccccc23)CC1)c1ccccc1
178 to 183 °C | O=C1NC(=O)c2c1c(-c1ccccc1)cc1c2c2cc(O)ccc2n1CCCN1CCNCC1
197 °C | CCOc1ccc2c(c1)n(C1CCCCC1)c(=O)n2S(=O)(=O)c1ccc(NC(=O)Oc2ccccc2)cc1OC
30 °C | CC1C(NC(=O)OCc2ccccc2)C(=O)N1OCC(=O)OC(C)(C)C (stereo not given)
223 to 225 °C | COc1ccc(/C=C/c2nc3cc([N+](=O)[O-])ccc3[nH]2)cc1OC
156 to 158 °C | Cc1cccc(Nc2cc(Cl)nc(SCC(=O)NC(C)C)n2)c1C
184 to 185 °C | O=C1NC(CN2CCN(c3ccccc3)CC2)Cc2c[nH]c3cccc1c23 (stereo not given)
114 to 116 °C | Cc1nc2c(c(-c3ccccc3)n1)CCN(c1ccnc([C@@H](C)O)n1)C2
225 to 227 °C | CN(C1CCN(c2ncc3ncnc(Nc4ccc(F)c(Cl)c4)c3n2)CC1)S(C)(=O)=O
181 to 183 °C | Cc1c(N2CCN(C)C(C)C2)c(F)cc2c(=O)c(C(=O)O)cn(C3CC3)c12 (stereo not given)
119 to 120 °C | Cc1oc(-c2ccccc2)nc1C(=O)COc1ccc(CCC2OCCO2)cc1
141 to 143 °C | ON=Cc1cccc(OCCN2CCC(Cc3ccccc3)CC2)c1
167 to 169 °C | CCOC(=O)C1=C(COCCn2c(C)nnc2-c2ccccc2)NC(C)=C(C(=O)Nc2ccccn2)C1c1ccccc1Cl (stereo not given)
219 to 221 °C | CCc1nc2cc(/C=C/C(=O)NO)c(F)cc2c(=O)n1CCc1ccccc1
165 to 167 °C | O=C(NC1(C(=O)O)CCCC1)C(CS)Cc1ccccc1 (stereo not given)

melting point | Compound
167 °C | COC(C)CC(=O)NC1CCC(CCN2CCN(c3nccc4c3CCO4)CC2)CC1 (stereo not given)
86 to 89 °C | CC(CO)c1ccc(O)c(Cc2ccccc2O)c1 (stereo not given)
230 °C | CC=CCNc1cc(C(=O)O)cc(S(N)(=O)=O)c1Nc1ccc(NC(C)=O)cc1
72 to 74 °C | COC(=O)C[C@@H]1CCC/C1=C\Cc1c(O)c2c(c(C)c1OC)COC2=O
198 to 199 °C | CC(=O)Nc1ccc(COc2cccc(C(N)=O)c2)cc1
165 °C | Cc1nc(C)c(C(=O)NC(C)c2ccccc2)cc1CCl (stereo not given)
255 to 257 °C | Cc1ccc(Cl)c2nc3cccc(C(=O)O)c3nc12
94 to 96 °C | COc1ccc(Nc2nc(Nc3cc4c(cc3OC)CNC(CC3CC3)C(=O)N4C)ncc2Cl)c(-n2cccn2)c1 (stereo not given)
208 to 210 °C | COc1ccc(NC(C)=O)cc1C(=O)O
275 to 277 °C | O=C1NC(=S)SC1=Cc1cc(Cl)c2c(c1)N(CCc1ccc(C(F)(F)F)cc1)C(=O)CO2
79 to 80 °C | CCOC(=O)CC[C@H](NC(=O)c1csc(CCCc2coc3nc(N)nc(N)c23)c1)C(=O)OCC
185 to 186 °C | CC(C)(C)c1ccc(CCCO)cc1NC(=O)CC1c2ccccc2Oc2ccccc21
240 °C | COc1cccc(OC)c1-c1cc(C(=O)NC2(C(=O)O)C3CC4CC(C3)CC2C4)nn1-c1ccc(NC(=O)CCN2CCCCC2)cc1C (stereo not given)
93.5 to 93.9 °C | O=C(NCCc1ccccc1Cl)C1CCCCC1
230 to 234 °C | O=C(N[C@@H](Cc1ccccc1)C(=O)N1CCS(=O)CC1)c1cc2cc(Cl)ccc2[nH]1
130 to 131 °C | COc1ccc(-c2cc(C(F)(F)F)nn2-c2ccc(S(N)(=O)=O)c(F)c2)cc1
177 °C | CCCCCCCCCC(C)(C)c1cc(C(=O)Nc2ccc(C(=O)O)cc2)ccc1OC
250 to 252 °C | COC(=O)c1ccc2oc3c(c(=O)c2c1)CCC3=Cc1ccccn1
257 °C | O=C(O)c1ccc(C=CC(=O)N2CCCCC2)cc1
205 to 206 °C | Cc1cc(Nc2ncnc3ccc(-c4cccs4)cc23)ccc1OCc1ccccn1
157 to 158 °C | Cc1nc(N2CCN(CC3CC3)C2=O)sc1C(=O)NCc1cccnc1
250 to 251 °C | O=C1CCCC2=C1C(c1cccc(C(F)(F)F)c1)C1=C(CCCC1)N2 (stereo not given)
